# Results: patent publication US20250122191A1, “COMPOUNDS AS BCL-2 INHIBITORS” (Fochon Biosciences, Ltd, priority 2021, published 2025)
# Key:
# Assay type in all cases: cell-based
# RS4;11-BCL-2 F104L cells = test: Cell proliferation assay (MTS), RS4;11-BCL-2 F104L engineered cells; conditions: Homo sapiens, 120 h, read-out: RS4, 11 BCL2-F104L IC50
# Description: MTS testing kit was purchased from Promega (Madison, WI, USA). The RPMI-1640, Fetal bovine serum and Penicillin-Streptomycin were purchased from BI (Biological Industries, Beit Haemek, Israel). Puromycin was purchased from Beyotime (shanghai, China). Dimethyl sulfoxide (DMSO) was purchased from Sigma (St. Louis., MO, USA). RS4;11-BCL-2 G101V (Cobioer Lot. #: CBD2021063013P4), RS4;11-BCL-2 D103E (Cobioer Lot. #: CBD2021063013P4), RS4;11-BCL-2 D103Y (Cobioer Lot. #: CBD2022012101P4) and RS4;11-BCL-2 F104L (Cobioer Lot. #: CBD2021063014P4) cells were cultured in RPMI1640 supplemented with 1 ug/mL puromycin, 100 U/mL Penicillin-Streptomycin and 10% FBS.
# To investigate whether a compound is able to inhibit the activity of BCL-2 mutation in cells, a mechanism-based assay using engineered cell lines stably overexpressing BCL-2 mutation (RS4;11-BCL-2 G101V, RS4;11-BCL-2 D103E, RS4;11-BCL-2 D103Y, and RS4;11-BCL-2 F104L) was developed. In this assay, the inhibition of BCL-2 mutation was reflected by the inhibition of cell proliferation of engineered RS4;11 cells. Cells were plated into 96-well plates at optimized cell density (RS4;11-BCL-2 G101V: 5000 cells/well; RS4;11-BCL-2 D103E: 7500 cells/well; RS4;11-BCL-2 D103Y: 7500 cells/well; RS4;11-BCL-2 F104L: 5000 cells/well). Plates were incubated at 37° C., with 5% CO2 for 4 h (RS4;11-BCL-2 G101V, RS4;11-BCL-2 F104L) and 24 h (RS4;11-BCL-2 D103E, RS4;11-BCL-2 D103Y), respectively. Compounds were serially diluted and added to the plates with the final concentrations of 10000, 3333.3, 1111.1, 370.4, 123.5, 41.2, 13.7, 4.6 and 1.5 nM. Plates were incubated at 37° C., with 5% CO2 for 120 h (RS4; 11-BCL-2 G101V, RS4; 11-BCL-2 F104L) and 72 h (RS4;11-BCL-2 D103E, RS4;11-BCL-2 D103Y), respectively. 20 μl MTS was added into each well and the plates were incubated at 37° C., with 5% CO2 exactly for 2 h. The absorbance was measured by a microplate reader at 490 nm. IC50 values were calculated using GraphPad Prism 8.0 software.
# RS4;11-BCL-2 D103E cells = test: Cell proliferation assay (MTS), RS4;11-BCL-2 D103E engineered cells; conditions: Homo sapiens, 72 h, read-out: RS4, 11 BCL2-D103E IC50
# Outline: (§1)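 Inhibition of mutant BCL-2 is inferred from reduced proliferation of RS4;11 cells stably overexpressing the mutant. Compounds are tested at 1.5–10000 nM for 120 h (G101V, F104L) or 72 h (D103E, D103Y), with MTS absorbance at 490 nm used to derive IC50.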
# Toledo cells = test: Cell proliferation assay (MTS), Toledo cells; conditions: Homo sapiens, 72 h
# Outline: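 Toledo cells (RPMI-1640, 10% FBS) seeded at 30000 cells/well, rested 4 h, then exposed 72 h at 37 °C, 5% CO2 to compound at nine final concentrations, 1.5–10000 nM. Viability by MTS (2 h), absorbance at 490 nm. IC50 from the concentration-response.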
# RS4;11-BCL-2 G101V cells = test: Cell proliferation assay (MTS), RS4;11-BCL-2 G101V engineered cells; conditions: Homo sapiens, 120 h, read-out: RS4, 11 BCL2-G101V IC50
# Outline: as §1
IC50 (RS4;11-BCL-2 F104L cells) [nM],IC50 (RS4;11-BCL-2 D103E cells) [nM],IC50 (RS4;11-BCL-2 G101V cells) [nM],SMILES,IC50 (Toledo cells) [nM]
1,–,–,"CCOc1nc2[nH]cc(F)c2cc1Oc1cc(N2CCC3(CC2)CC(N2CCOC[C@H]2c2ccccc2C(C)C)C3)ccc1C(=O)NS(=O)(=O)c1cnc(NC[C@H]2CC[C@](C)(O)CC2)c([N+](=O)[O-])c1 [Example 88, 2-((6-ethoxy-3-fluoro-1H-pyrrolo[2,3-b]pyridin-5-yl)oxy)-N-((6-((((1r,4r)-4-hydroxy-4-methylcyclohexyl)methyl)amino)-5-nitropyridin-3-yl)sulfonyl)-4-(2-((R)-3-(2-isopropylphenyl)morpholino)-7-azaspiro[3.5]nonan-7-yl)benzamide]",–
–,1,1,"COc1cc(CN2CCN(C3CC4(CCN(c5ccc(C(=O)NS(=O)(=O)c6cnc(NC[C@H]7CC[C@](C)(O)CC7)c([N+](=O)[O-])c6)c(Oc6cnc7[nH]cc(F)c7c6)c5)CC4)C3)[C@H](c3ccccc3C(C)C)C2)ccn1 [Example 243, 2-((3-fluoro-1H-pyrrolo[2,3-b]pyridin-5-yl)oxy)-N-((6-((((1r,4r)-4-hydroxy-4-methylcyclohexyl)methyl)amino)-5-nitropyridin-3-yl)sulfonyl)-4-(2-((R)-2-(2-isopropylphenyl)-4-((2-methoxypyridin-4-yl)methyl)piperazin-1-yl)-7-azaspiro[3.5]nonan-7-yl)benzamide]",1
–,3,1,"CCOc1nc2[nH]cc(F)c2cc1Oc1cc(N2CCC3(CC2)CC(N2CCN(Cc4ccc(OC)c(OC)c4)C[C@H]2c2ccccc2C(C)C)C3)ccc1C(=O)NS(=O)(=O)c1cnc(NC[C@H]2CC[C@](C)(O)CC2)c([N+](=O)[O-])c1 [Example 8, 4-(2-((R)-4-(3,4-dimethoxybenzyl)-2-(2-isopropylphenyl)piperazin-1-yl)-7-azaspiro[3.5]nonan-7-yl)-2-((6-ethoxy-3-fluoro-1H-pyrrolo[2,3-b]pyridin-5-yl)oxy)-N-((6-((((1r,4r)-4-hydroxy-4-methylcyclohexyl)methyl)amino)-5-nitropyridin-3-yl)sulfonyl)benzamide]",1
–,3,1,"COc1ccc(CN2CCN(C3CC4(CCN(c5ccc(C(=O)NS(=O)(=O)c6cnc(NC[C@H]7CC[C@](C)(O)CC7)c([N+](=O)[O-])c6)c(Oc6cc7c(F)c[nH]c7nc6OC)c5)CC4)C3)[C@H](c3ccccc3C(C)C)C2)nc1 [Example 122, 2-((3-fluoro-6-methoxy-1H-pyrrolo[2,3-b]pyridin-5-yl)oxy)-N-((6-((((1r,4r)-4-hydroxy-4-methylcyclohexyl)methyl)amino)-5-nitropyridin-3-yl)sulfonyl)-4-(2-((R)-2-(2-isopropylphenyl)-4-((5-methoxypyridin-2-yl)methyl)piperazin-1-yl)-7-azaspiro[3.5]nonan-7-yl)benzamide]",1
–,1,1,"COc1ccc(CN2CCN(C3CC4(CCN(c5ccc(C(=O)NS(=O)(=O)c6cnc(NC[C@H]7CC[C@](C)(O)CC7)c([N+](=O)[O-])c6)c(Oc6cnc7[nH]cc(F)c7c6)c5)CC4)C3)[C@H](c3ccccc3C(C)C)C2)cn1 [Example 252, 2-((3-fluoro-1H-pyrrolo[2,3-b]pyridin-5-yl)oxy)-N-((6-((((1r,4r)-4-hydroxy-4-methylcyclohexyl)methyl)amino)-5-nitropyridin-3-yl)sulfonyl)-4-(2-((R)-2-(2-isopropylphenyl)-4-((6-methoxypyridin-3-yl)methyl)piperazin-1-yl)-7-azaspiro[3.5]nonan-7-yl)benzamide]",1
–,1,1,"CCOc1nc2[nH]cc(F)c2cc1Oc1cc(N2CCC3(CC2)CC(N2CCN(CC)C[C@H]2c2ccccc2C(C)C)C3)ccc1C(=O)NS(=O)(=O)c1cnc(NC[C@H]2CC[C@](C)(O)CC2)c([N+](=O)[O-])c1 [Example 141, 2-((6-ethoxy-3-fluoro-1H-pyrrolo[2,3-b]pyridin-5-yl)oxy)-4-(2-((R)-4-ethyl-2-(2-isopropylphenyl)piperazin-1-yl)-7-azaspiro [3.5]nonan-7-yl)-N-((6-((((1r,4r)-4-hydroxy-4-methylcyclohexyl)methyl)amino)-5-nitropyridin-3-yl)sulfonyl)benzamide]",1

# Continued, molecule first:
SMILES,IC50 (RS4;11-BCL-2 F104L cells) [nM],IC50 (RS4;11-BCL-2 D103E cells) [nM],IC50 (RS4;11-BCL-2 G101V cells) [nM],IC50 (Toledo cells) [nM]
"COc1ccc(CN2CCC(N3CC4(CCN(c5ccc(C(=O)NS(=O)(=O)c6cnc(NC[C@H]7CC[C@](C)(O)CC7)c([N+](=O)[O-])c6)c(Oc6cc7c(F)c[nH]c7nc6OC)c5)CC4)C3)C(c3ccccc3C(C)C)C2)cc1 (some centres unmarked) [Example 19, 2-((3-fluoro-6-methoxy-1H-pyrrolo[2,3-b]pyridin-5-yl)oxy)-N-((6-((((1r,4r)-4-hydroxy-4-methylcyclohexyl)methyl)amino)-5-nitropyridin-3-yl)sulfonyl)-4-(2-(3-(2-isopropylphenyl)-1-(4-methoxybenzyl)piperidin-4-yl)-2,7-diazaspiro[3.5]nonan-7-yl)benzamide]",1,–,–,–
"COc1ccc(CN2CCN(C3CC4(CCN(c5ccc(C(=O)NS(=O)(=O)c6cnc(NC[C@H]7CC[C@](C)(O)CC7)c([N+](=O)[O-])c6)c(Oc6cnc7[nH]ccc7c6)c5)CC4)C3)[C@H](c3ccccc3C(C)C)C2)cc1 [Example 61, 2-((1H-pyrrolo[2,3-b]pyridin-5-yl)oxy)-N-((6-((((1r,4r)-4-hydroxy-4-methylcyclohexyl)methyl)amino)-5-nitropyridin-3-yl)sulfonyl)-4-(2-((R)-2-(2-isopropylphenyl)-4-(4-methoxybenzyl)piperazin-1-yl)-7-azaspiro[3.5]nonan-7-yl)benzamide]",1,–,–,–
"CCOc1nc2[nH]cc(F)c2cc1Oc1cc(N2CCC3(CC2)CN(C2CCN(Cc4ccc(OC)cc4)CC2c2ccccc2C(C)C)C3)ccc1C(=O)NS(=O)(=O)c1cnc(NC[C@H]2CC[C@](C)(O)CC2)c([N+](=O)[O-])c1 (some centres unmarked) [Example 20, 2-((6-ethoxy-3-fluoro-1H-pyrrolo[2,3-b]pyridin-5-yl)oxy)-N-((6-((((1r,4r)-4-hydroxy-4-methylcyclohexyl)methyl)amino)-5-nitropyridin-3-yl)sulfonyl)-4-(2-(3-(2-isopropylphenyl)-1-(4-methoxybenzyl)piperidin-4-yl)-2,7-diazaspiro[3.5]nonan-7-yl)benzamide]",3,–,–,–
"COc1cc(CN2CCC(N3CC4(CCN(c5ccc(C(=O)NS(=O)(=O)c6cnc(NC[C@H]7CC[C@](C)(O)CC7)c([N+](=O)[O-])c6)c(Oc6cc7c(F)c[nH]c7nc6OC)c5)CC4)C3)[C@H](c3ccccc3C(C)C)C2)ccn1 (single isomer, unassigned) [Example 363, 2-((3-fluoro-6-methoxy-1H-pyrrolo[2,3-b]pyridin-5-yl)oxy)-N-((6-((((1r,4r)-4-hydroxy-4-methylcyclohexyl)methyl)amino)-5-nitropyridin-3-yl)sulfonyl)-4-(2-(3-(2-isopropylphenyl)-1-((2-methoxypyridin-4-yl)methyl)piperidin-4-yl)-2,7-diazaspiro[3.5]nonan-7-yl)benzamide]",1,–,–,–
"COc1c(F)cc(CN2CCN(C3CC4(CCN(c5ccc(C(=O)NS(=O)(=O)c6cnc(NC[C@H]7CC[C@](C)(O)CC7)c([N+](=O)[O-])c6)c(Oc6cnc7[nH]cc(F)c7c6)c5)CC4)C3)[C@H](c3ccccc3C(C)C)C2)cc1F [Example 248, 4-(2-((R)-4-(3,5-difluoro-4-methoxybenzyl)-2-(2-isopropylphenyl)piperazin-1-yl)-7-azaspiro[3.5]nonan-7-yl)-2-((3-fluoro-1H-pyrrolo[2,3-b]pyridin-5-yl)oxy)-N-((6-((((1r,4r)-4-hydroxy-4-methylcyclohexyl)methyl)amino)-5-nitropyridin-3-yl)sulfonyl)benzamide]",–,3,1,1
